Data on 100 compounds can be found in ChEMBL document CHEMBL3507680, “University of Dundee, Gates Library screen for HepG2 cell viability”.

This data set in a line: Human HepG2 cell viability assay in 384 well format. Format: toxicity, cell-based. Further details: dose 125 nL, time 70.5 hour; cytotoxicity at 70.5 h: concentration not given beside the values. As to conditions: HepG2 cells, read-out: Inhibition.
On to `CC(C)CC(NC(=O)c1ccn(C)c(=O)c1)c1cccs1` (stereo not given), for which the cytotoxicity at 70.5 h is 33.9%.

Turning to `Cn1ccc(C(=O)N2CCN(Cc3ccccc3F)CC2)cc1=O`, the cytotoxicity at 70.5 h was -0.663%.

In the case of `CC(C)CNC(=O)CNC(=O)Nc1cccc(Cl)c1-n1cccn1`, the cytotoxicity at 70.5 h stood at 1.42%.

With `N#CCCN(CC1CC1)Cn1cc(Cl)cn1`, the cytotoxicity at 70.5 h is 34.6%.

With `CN(C)C(=O)CCNC(=O)Nc1cccc(Cl)c1-n1cccn1`, the cytotoxicity at 70.5 h worked out at 1.32%.

Take `CC(C)CC(CC(C)C)NC(=O)c1ccn(C)c(=O)c1`: the cytotoxicity at 70.5 h came to 1.9%.

As to `O=C(NCCC1CCN(CC(F)(F)F)CC1)C1CCOC1` (stereo not given), the cytotoxicity at 70.5 h was determined as 3.01%.

Consider `O=C(Nc1cccn(Cc2ccc(F)cc2)c1=O)c1cnc[nH]1`, for which the cytotoxicity at 70.5 h was -3.1%.

Take `CC(=O)NS(=O)(=O)c1ccc(F)cc1C(F)(F)F`: the cytotoxicity at 70.5 h was determined as 33.1%.

As for `CS(=O)(=O)c1ccccc1NCc1ccc(Cn2ccnc2)cc1`, the cytotoxicity at 70.5 h is -0.289%.

Regarding `COc1cccc(S(=O)(=O)Cc2noc(CC(C)C)n2)c1`, the cytotoxicity at 70.5 h is -4.78%.

On to `CN(C)C(CNCc1nc(-c2ccsc2)no1)c1cccc(F)c1` (stereo not given), for which the cytotoxicity at 70.5 h was -10.2%.

With `COc1cccc(C2=CCN(CCN3CCCC3=O)CC2)c1`, the cytotoxicity at 70.5 h was -7.88%.

As to `Cc1oc(-c2ccsc2)nc1CNC(C)Cn1cccn1` (stereo not given), the cytotoxicity at 70.5 h came out at 11.6%.

As for `CN1CC(C(=O)NCc2cccnc2OCC(F)(F)F)CC1=O` (stereo not given), the cytotoxicity at 70.5 h is -2.61%.

`CN(CCS(=O)(=O)c1cc(Cl)ccc1Cl)CC(N)=O`: the cytotoxicity at 70.5 h is -0.37%.

On to `CCOC(=O)C1CCN(C(=O)Cc2c(C)nc(C)[nH]c2=O)CC1`, for which the cytotoxicity at 70.5 h is 12.3%.

For the compound `CC(C)N(CC(N)=O)Cc1cccc(Br)c1`, the cytotoxicity at 70.5 h was 1.5%.

For `Cc1nc(-c2ccc(Cl)s2)sc1C(=O)N(C)CC(N)=O`, the cytotoxicity at 70.5 h was found to be 11.9%.

Consider `CC(C)N(CC(N)=O)Cc1cccc(C(F)(F)F)c1`, for which the cytotoxicity at 70.5 h was -1.84%.

With `Cc1nc(C)c(CC(=O)N2CCN(CC(C)C)CC2)c(=O)[nH]1`, the cytotoxicity at 70.5 h was found to be 2.2%.

As to `CCOC(=O)N1CCN(C(=O)Cc2c(C)nc(C)[nH]c2=O)CC1`, the cytotoxicity at 70.5 h was determined as 13.6%.

In the case of `CCc1ccc(C(C)NC(=O)c2ccc(CS(C)(=O)=O)o2)cc1` (stereo not given), the cytotoxicity at 70.5 h was -4.79%.

As to `Cc1cccc(C)c1NCc1noc(C2CC2)n1`, the cytotoxicity at 70.5 h stood at 0.946%.

For `c1ccc2c(NCC3(N4CCOCC4)CCSC3)ncnc2c1` (stereo not given), the cytotoxicity at 70.5 h turned out to be 2.49%.

On to `Cc1nc(S(=O)(=O)CCn2cccn2)n(C2CCCC2)c1C`, for which the cytotoxicity at 70.5 h came out at 10.5%.

In the case of `Cc1nc(S(=O)(=O)CCn2cccn2)n(CC2CCCO2)c1C` (stereo not given), the cytotoxicity at 70.5 h was -2.87%.

Turning to `CCCN(C)CC1CCN(c2ncc(Br)cn2)C1` (stereo not given), the cytotoxicity at 70.5 h is 2.13%.

On to `CC(C1CC1)N(CC(=O)NC(=O)NC1CC1)C1CC1` (stereo not given), for which the cytotoxicity at 70.5 h is -3.17%.

For `Cc1oc(-c2ccsc2)nc1CNCCn1cccn1`, the cytotoxicity at 70.5 h is -5.13%.

`Cc1ncsc1CNC(=O)N(Cc1ccccc1)CC(C)(C)O`: the cytotoxicity at 70.5 h was -3.17%.

Regarding `Cc1cccc(C(C)CNC(=O)N2CCOCC3(CCOCC3)C2)c1` (stereo not given), the cytotoxicity at 70.5 h was -4.47%.

With `COc1cc(I)c(Cl)cc1C(=O)N(C)C`, the cytotoxicity at 70.5 h was -20.5%.

Regarding `CCOc1cc(CNC(=O)c2cnn(CC)c2C(F)(F)F)ccn1`, the cytotoxicity at 70.5 h was -12.6%.

Consider `CCOc1ccccc1CNC(=O)c1cnn(CC)c1C(F)(F)F`, for which the cytotoxicity at 70.5 h was determined as 17.5%.

As for `CNC(=O)CN(C)C(=O)c1cc(Cl)c(I)cc1OC`, the cytotoxicity at 70.5 h was -18.4%.

With `Cc1ccc(C)n1-c1c(C(=O)NCC(C)Cn2cccn2)cnn1C` (stereo not given), the cytotoxicity at 70.5 h was -21.4%.

For `CN(Cc1nnc(C2CC2)n1C)S(=O)(=O)Cc1ccccc1F`, the cytotoxicity at 70.5 h is -20.7%.

Consider `CN(Cc1nnc(C2CC2)n1C)S(=O)(=O)c1ccc(F)c(C#N)c1`, for which the cytotoxicity at 70.5 h is -23.4%.

Take `CN(Cc1nnc(-c2ccco2)o1)C(C(N)=O)c1cccc(F)c1` (stereo not given): the cytotoxicity at 70.5 h was 0.238%.

As to `Cn1nnnc1SCC1Cc2ccccc2O1` (stereo not given), the cytotoxicity at 70.5 h turned out to be 26.1%.

For `COCCCn1ccc(NS(=O)(=O)c2cc(C)c(F)cc2F)n1`, the cytotoxicity at 70.5 h was -15.7%.

For the compound `Cc1cnccc1CCNC(=O)Nc1cnc(N(C)C)nc1`, the cytotoxicity at 70.5 h is 25.9%.

Regarding `COc1ccccc1CC(=O)NC1CCCc2cn[nH]c21` (stereo not given), the cytotoxicity at 70.5 h was -0.577%.

Take `Cc1ccc(CCCC(=O)N2CCN(C3CCCN(C)C3)CC2)s1` (stereo not given): the cytotoxicity at 70.5 h was -2.97%.

As to `CC(=O)c1c(F)cccc1NCC(O)C1CC1` (stereo not given), the cytotoxicity at 70.5 h was -19.1%.

Take `CN(Cc1nnc(C2CC2)n1C)S(=O)(=O)c1ccccc1C#N`: the cytotoxicity at 70.5 h is -15.5%.

Regarding `Cc1cnc(CN(Cc2cccc(O)c2)CC2CC2)cn1`, the cytotoxicity at 70.5 h was -6.41%.

Regarding `Cc1cnc(CN(Cc2ccccc2)CC2CCOCC2)cn1`, the cytotoxicity at 70.5 h is -3.35%.

Consider `CC(=O)c1c(F)cccc1NCC(O)c1ccc(F)c(F)c1` (stereo not given), for which the cytotoxicity at 70.5 h was -12.6%.

`CCC1CN(C(=O)COc2ccc(NC(C)=O)cc2)CCO1` (stereo not given): the cytotoxicity at 70.5 h is 13.7%.

For the compound `CN1CCC(CNC(=O)c2ccc(O)nc2)c2ccccc21` (stereo not given), the cytotoxicity at 70.5 h is 1.07%.

For the compound `CC(C)CCC(=O)Nc1ncn(CC(=O)N2CCCCCC2)n1`, the cytotoxicity at 70.5 h was -2.61%.

For the compound `CCn1c(CN2CCCC(Cn3cncn3)C2)nc2c(F)cccc21` (stereo not given), the cytotoxicity at 70.5 h was found to be 1.73%.

As for `CCc1noc(CN(C)CCC(=O)Nc2ccc(C#N)c(Cl)c2)n1`, the cytotoxicity at 70.5 h came out at 0.733%.

As for `CCn1c(CN2CCOC(Cn3cncn3)C2)nc2c(F)cccc21` (stereo not given), the cytotoxicity at 70.5 h turned out to be 15.4%.

Turning to `COc1ccc(C(=O)NS(C)(=O)=O)cc1-c1ccccc1`, the cytotoxicity at 70.5 h was -1.59%.

As for `Cc1nc(-c2cccc(C(=O)N(C)C)c2)cs1`, the cytotoxicity at 70.5 h is 1.56%.

Regarding `COc1ccccc1C(C)CNC(=O)c1[nH]ncc1Br` (stereo not given), the cytotoxicity at 70.5 h was determined as 3.61%.

`Cc1ccc2c(c1)C(NC1CCN(C)CC1)CCCO2` (stereo not given): the cytotoxicity at 70.5 h was 15.4%.

On to `Cc1ccc(CNCCCNS(C)(=O)=O)c(Br)c1`, for which the cytotoxicity at 70.5 h stood at 4%.

Take `O=S(=O)(Nc1ccon1)c1cc(Cl)cc2c1OCC2`: the cytotoxicity at 70.5 h was determined as 1.46%.

For `CCC(C)(NCc1nc(C)c(C)o1)c1nccs1` (stereo not given), the cytotoxicity at 70.5 h was determined as 15.6%.

Take `COc1ccc(CN2CCC3(CC(C(=O)NCC(C)C)=NO3)C2)cc1` (stereo not given): the cytotoxicity at 70.5 h was -6.44%.

As to `CC(C)CNC(=O)C1=NOC2(CCN(Cc3ccc(C(C)C)cc3)C2)C1` (stereo not given), the cytotoxicity at 70.5 h was -1.12%.

Regarding `CN(C)C(=O)N1Cc2nnn(CC3CC3)c2C(COCC2CC2)C1` (stereo not given), the cytotoxicity at 70.5 h is -6.92%.

`O=S(=O)(C1CC1)N1CCc2c(CN3CCOCC3)cncc2C1`: the cytotoxicity at 70.5 h is -2.38%.

For `CS(=O)(=O)N1CCOCC12CCN(Cc1ccoc1)CC2`, the cytotoxicity at 70.5 h is -5.63%.

With `COCC(=O)N1CCC2(C1)c1ccccc1S(=O)(=O)N2C` (stereo not given), the cytotoxicity at 70.5 h was -9.08%.

As to `CC(=O)N1CCC2(C1)c1ccccc1S(=O)(=O)N2C` (stereo not given), the cytotoxicity at 70.5 h is -7.77%.

Regarding `COCC(=O)N1CCC2(C1)c1ccccc1S(=O)(=O)N2CC1CC1` (stereo not given), the cytotoxicity at 70.5 h was -8.07%.

Turning to `CCCS(=O)(=O)N1Cc2nccn2CC(Cn2cncn2)C1` (stereo not given), the cytotoxicity at 70.5 h turned out to be 20.3%.

In the case of `CC(C)CS(=O)(=O)N1C[C@H]2C[C@H](C(=O)N3CCCC3)[C@@H](C1)O2`, the cytotoxicity at 70.5 h was 0.165%.

With `CC(C)CS(=O)(=O)N1C[C@H]2C[C@H](C(=O)N(C)C)[C@@H](C1)O2`, the cytotoxicity at 70.5 h was -1.1%.

Regarding `Cc1oncc1C(=O)N1CC[C@H]2[C@@H]1CCC(=O)N2CC1CC1`, the cytotoxicity at 70.5 h was determined as 2.95%.

As for `O=C(c1ccccn1)N1CCc2ncnc(-c3ccncc3)c2CC1`, the cytotoxicity at 70.5 h was -0.573%.

As for `CCS(=O)(=O)N1Cc2nccn2CC(Cn2cncn2)C1` (stereo not given), the cytotoxicity at 70.5 h was found to be 0.16%.

For the compound `O=S(=O)(C1CC1)N1CCC2(CCCN(Cc3ccccn3)C2)CC1`, the cytotoxicity at 70.5 h is -5.17%.

In the case of `O=S(=O)(C1CC1)N1Cc2nccn2CC(Cn2cncn2)C1` (stereo not given), the cytotoxicity at 70.5 h was -4.4%.

`CC(C)N(C)[C@@H]1CCN(S(C)(=O)=O)[C@H]1Cc1ccccc1`: the cytotoxicity at 70.5 h is -3.3%.

For the compound `c1nc2c(c(N3CCOCC3)n1)CCNCC2`, the cytotoxicity at 70.5 h is -4.52%.

As for `c1cncc(COCC2C[C@@H]3OCCN(Cc4cccnc4)[C@H]3C2)c1` (stereo not given in full), the cytotoxicity at 70.5 h is -2.24%.

Regarding `CC(C)N(CC(=O)O)Cc1cccc(Br)c1`, the cytotoxicity at 70.5 h is 2.77%.

Turning to `O=C(O)CN1CCC(C(F)(F)F)CC1`, the cytotoxicity at 70.5 h was -2.76%.

`CC(C)CN1CCO[C@H]2CCN(c3cnccn3)CC[C@@H]21`: the cytotoxicity at 70.5 h is -8.81%.

`Cc1csc([C@@H]2C[C@H]3CN(c4ncc(F)cn4)C[C@H]3O2)n1`: the cytotoxicity at 70.5 h was -2.24%.

As to `CS(=O)(=O)N1CCOCC12CCN(Cc1ccc(F)cc1)CC2`, the cytotoxicity at 70.5 h is -6.42%.

Regarding `CNC(=O)COC1COC2(CCN(Cc3ccncc3F)CC2)C1` (stereo not given), the cytotoxicity at 70.5 h was -18%.

Regarding `Fc1cccc(CN2CCC3(CCN3c3ncccn3)C2)c1` (stereo not given), the cytotoxicity at 70.5 h is -8.53%.

On to `Cc1ccc(N2C[C@@H]3OCCN(CC4CC4)[C@@H]3C2)nn1`, for which the cytotoxicity at 70.5 h is -7.81%.

Consider `CNC(=O)COC1COC2(CCN(Cc3cccnc3OC)CC2)C1` (stereo not given), for which the cytotoxicity at 70.5 h is -8.67%.

In the case of `CS(=O)(=O)NC[C@H]1OC[C@@H]2CCN(CCc3ccccc3)C[C@@H]21`, the cytotoxicity at 70.5 h amounted to 17.3%.

As for `O=C(c1ccno1)N1CCc2ncnc(-c3ccncc3)c2CC1`, the cytotoxicity at 70.5 h was determined as 1.37%.

Regarding `CS(=O)(=O)NC[C@@H]1OC[C@H]2CN(Cc3ccccc3)CC[C@H]21`, the cytotoxicity at 70.5 h was -1.13%.

Regarding `Cc1cccc(CN2CCc3onc(Cn4cccc4)c3C2)n1`, the cytotoxicity at 70.5 h is -2.56%.

As to `Cc1ccc(N2Cc3cnn(C)c3C(COCC3CC3)C2)nn1` (stereo not given), the cytotoxicity at 70.5 h was -4.86%.

On to `CCOCC1CN(c2ccc(C)nn2)Cc2cnn(CC)c21` (stereo not given), for which the cytotoxicity at 70.5 h is -5.73%.

Regarding `CCn1ncc2c1C(COCC1CC1)CN(c1ccc(C)nn1)C2` (stereo not given), the cytotoxicity at 70.5 h was -10.4%.

In the case of `O=S(=O)(C1CC1)N1CCC2(CCCN(Cc3ccccn3)C2)C1` (stereo not given), the cytotoxicity at 70.5 h was -0.34%.

Turning to `CN1CCN(C[C@@H]2OC[C@H]3CN(CCc4ccccc4)CC[C@H]32)CC1`, the cytotoxicity at 70.5 h is -0.223%.
